Test results: US5633219A, “5H-pyrrolo(3',4':5,6)(1,4)dithiin o(2,3-C)(1,2,5)thiadiazole-5,7(6H)-dione, compositions containing them and their use as antimicrobial and marine antifouling agents” (The Dow Chemical Company, priority 1996, dated 1997)
Values after ≈ are worked out from the molar mass of the structure shown. Read-outs that look alike come from different tables or passages of the source.

Key:
Candida albicans (Ca) = test: Minimum inhibitory concentration, malt yeast agar, Candida albicans; type: cell-based, Candida albicans ATCC 10231; settings: malt yeast agar, 30° C, 48 hours (yeast); read-out: Minimum Inhibitory Concentration, Ca
Method: (§1) Malt yeast agar is prepared by adding 3 g yeast extract and 45 g malt agar per liter of deionized water. The specific agar is dispensed in 30 mL aliquots into 25×200 mm test tubes, capped and autoclaved for 15 minutes at 115° C.
(§2) The inoculation with the yeast and fungi is accomplished as follows. Cultures of yeast and fungi are incubated for seven days on malt yeast agar at 30° C. These cultures are used to prepare suspensions by the following procedure. A suspension of each organism is prepared by adding 10 mL of sterile saline and 10 microliters of octylphenoxy polyethoxy ethanol to the agar slant of yeast or fungi. The sterile saline/octylphenoxy polyethoxy ethanol solution is then agitated with a sterile swab to suspend the microorganism grown on the slant. Each resulting suspension is diluted into sterile saline (1 part suspension to 9 parts sterile saline). Aliquots of these dilutions are placed in individual wells of Steer's Replicator and petri plates inoculated as previously described. The petri plates are incubated at 30° C. and read after 48 hours for yeast and 72 hours for fungi.

[1] = system: Salmonella choleraesuis (Sc); test: Minimum inhibitory concentration, nutrient agar, Salmonella choleraesuis; type: cell-based, Salmonella choleraesuis ATCC 10708; settings: Salmonella enterica, 30° C, 48 hours
[2] = system: Enterobacter aerogenes (Ea); test: Minimum inhibitory concentration, nutrient agar, Enterobacter aerogenes; settings: Klebsiella aerogenes, 48 h
marine organisms = test: Marine antifouling rating of coated test panels exposed under a marine surface; settings: scale 10 (completely free of growth) to 0 (completely covered), 1.0 g compound in 9.0 g latex binder
Method: Test panels are prepared from clear, rigid polyvinyl chloride film that is 0.381×10^-3 m thick and has one textured surface. The test panels are 0.1524 m by 0.1524 m squares that have 0.00635 m holes punched at corners on 0.127 m centers. A 0.102 square template, with a 0.067 m diameter hole at the center, is attached to the center of the textured surface of the test panels.
A candidate marine antifoulant compound (1.0 g) is stirred into a resinous latex binder (9.0 g). A portion of the compound/binder mixture (1.5 g) is added to the center of the test panel and uniformly spread over the circular area inside the template.
Water is added dropwise as needed to properly spread the compound/binder mixture. The template prevents the compound/binder mixture from spreading beyond the uncovered area. The test panel is allowed to sit for between 10 to 30 minutes until the edge of the spread compound/binder mixture has dried. The template is then removed. The test panel is then allowed to dry for 8 to 12 hours at room temperature.
Two test panels are prepared for each candidate marine antifoulant compound. Two control test panels are also prepared by only treating with the resinous latex binder. One test panel of each candidate marine […] compound is attached over a white background to the topside of an exposure support apparatus. The second test panel is attached over a black background to the underside of the exposure support apparatus. The exposure support apparatus is placed horizontally 0.0254 m under a marine surface with the white background topside facing up. […]
After being removed from the exposure support apparatus, each test panel is inspected and rated for marine organism growth on both the treated and untreated areas of the test panel. The marine organisms present on the treated and untreated areas are noted. The presence of algae spores and bacterial slime are noted but not included in rating each test panel. The test panels are rated on a scale from 10 (representing completely free of marine organism growth) to 0 (representing completely covered with marine organism growth).

Fusarium oxysporum (Of) = test: Minimum inhibitory concentration, malt yeast agar, Fusarium oxysporum; type: cell-based, Fusarium oxysporum ATCC 48112; settings: 30° C, 72 hours (fungi), read-out: Minimum Inhibitory Concentration, Fo
Method: as §1, §2

[3] = system: Pseudomonas aeruginosa (Pa); test: Minimum inhibitory concentration, nutrient agar, Pseudomonas aeruginosa; type: cell-based, Pseudomonas aeruginosa ATCC 10145; settings: 30° C, 48 hours
Trichoderma viride (Tv) = test: Minimum inhibitory concentration, malt yeast agar, Trichoderma viride; type: cell-based, Trichoderma viride ATCC 8678; settings: malt yeast agar, 30° C, 72 hours (fungi); read-out: Minimum Inhibitory Concentration, Tv
Method: as §1, §2

[4] = system: Aureobasidium pullulan (Ap); test: Minimum inhibitory concentration, malt yeast agar, Aureobasidium pullulan; type: cell-based, Aureobasidium pullulan ATCC 16622; settings: 30° C, 48 hours for yeast and 72 hours for fungi
Method: as §1, §2

[5] = system: Penicillium chrysogenum (PC); test: Minimum inhibitory concentration, malt yeast agar, Penicillium chrysogenum; type: cell-based, Penicillium chrysogenum ATCC 9480; settings: malt yeast agar, 30° C, 72 hours (fungi); read-out: Minimum Inhibitory Concentration, Pc
Method: as §1, §2

[6] = system: Klebsiella pneumoniae (Kp); test: Minimum inhibitory concentration, nutrient agar, Klebsiella pneumoniae; settings: 48 h
Escherichia coli (Ec) = test: Minimum inhibitory concentration, nutrient agar, Escherichia coli; settings: 48 h
Bacillus subtilis (Bs) = test: Minimum inhibitory concentration, nutrient agar, Bacillus subtilis; settings: 48 h
Aspergillus niger (An) = test: Minimum inhibitory concentration, malt yeast agar, Aspergillus niger; type: cell-based, Aspergillus niger ATCC 16404; settings: 30° C, 72 hours (fungi)
Method: as §1, §2

[7] = system: Staphylococcus aureus (Sa); test: Minimum inhibitory concentration, nutrient agar, Staphylococcus aureus; settings: 48 h
Proteus vulgaris (Pv) = test: Minimum inhibitory concentration, nutrient agar, Proteus vulgaris; settings: 48 h
[8] = system: Saccharomyces cerevisiae (Sc); test: Minimum inhibitory concentration, malt yeast agar, Saccharomyces cerevisiae; type: cell-based, Saccharomyces cerevisiae ATCC 4105; settings: malt yeast agar, 30° C, 48 hours (yeast), read-out: Minimum Inhibitory Concentration, Sc
Method: as §1, §2

[9] = system: Pseudomonas aeruginosa (PRD-10); test: Minimum inhibitory concentration, nutrient agar, Pseudomonas aeruginosa PRD-10; settings: 48 h

CCCn1c(=O)c2sc3nsnc3sc=2c1=O [IV, 6-n-Propyl-5H-Pyrrolo(3',4':5,6)(1,4)dithiino-(2,3-C)(1,2,5)thiadiazole-5,7(6H) -dione]
MIC (Candida albicans (Ca)): < 1 µg/mL
MIC ([1]; pH 6.8, nutrient agar): 500 µg/mL (≈ 1750 µM)
MIC ([1]; pH 8.2, nutrient agar): > 500 µg/mL
MIC ([2]; pH 6.8, read-out: Minimum inhibitory Concentration, Ea): > 500 µg/mL
MIC ([2]; pH 8.2, read-out: Minimum inhibitory Concentration, Ea): > 500 µg/mL
Marine Antifouling Rating, Bottom Panel (marine organisms; 6 weeks): 9
Marine Antifouling Rating, Top Panel (marine organisms; 6 weeks): 9
Marine Antifouling Rating, Bottom Panel (marine organisms; 10 weeks): 7
Marine Antifouling Rating, Top Panel (marine organisms; 10 weeks): 7
Marine Antifouling Rating, Bottom Panel (marine organisms; 16 weeks): 7
Marine Antifouling Rating, Top Panel (marine organisms; 16 weeks): 7
MIC (Fusarium oxysporum (Of)): < 1 µg/mL
MIC ([3]; pH 6.8, nutrient agar): > 500 µg/mL
MIC ([3]; pH 8.2, nutrient agar): > 500 µg/mL
MIC (Trichoderma viride (Tv)): < 1 µg/mL
MIC [4]: < 1 µg/mL
MIC [5]: < 1 µg/mL
MIC ([6]; pH 6.8, read-out: Minimum inhibitory Concentration, Kp): > 500 µg/mL
MIC ([6]; pH 8.2, read-out: Minimum inhibitory Concentration, Kp): > 500 µg/mL
MIC (Escherichia coli (Ec); pH 6.8, read-out: Minimum inhibitory Concentration, Ec): > 500 µg/mL
MIC (Escherichia coli (Ec); pH 8.2, read-out: Minimum inhibitory Concentration, Ec): > 500 µg/mL
MIC (Bacillus subtilis (Bs); pH 6.8, read-out: Minimum inhibitory Concentration, Bs): < 10 µg/mL
MIC (Bacillus subtilis (Bs); pH 8.2, read-out: Minimum inhibitory Concentration, Bs): 250 µg/mL (≈ 876 µM)
MIC (Aspergillus niger (An)): < 1 µg/mL
MIC ([7]; pH 6.8, read-out: Minimum inhibitory Concentration, Sa): 50 µg/mL (≈ 175 µM)
MIC ([7]; pH 8.2, read-out: Minimum inhibitory Concentration, Sa): 50 µg/mL (≈ 175 µM)
MIC (Proteus vulgaris (Pv); pH 6.8, read-out: Minimum inhibitory Concentration, Pv): 250 µg/mL (≈ 876 µM)
MIC (Proteus vulgaris (Pv); pH 8.2, read-out: Minimum inhibitory Concentration, Pv): > 500 µg/mL
MIC [8]: < 1 µg/mL
MIC ([9]; pH 6.8, read-out: Minimum inhibitory Concentration, PRD): > 500 µg/mL
MIC ([9]; pH 8.2, read-out: Minimum inhibitory Concentration, PRD): > 500 µg/mL
